ChEMBL document CHEMBL3098003, “Structure-based design of 2-aminopyridine oxazolidinones as potent and selective tankyrase inhibitors” (ACS Med Chem Lett, 2013)
Active and inactive are the calls of the source. The calls are words filed in the database; no cut-off is given here.

Assays:
[1] = target: Tyrosine-protein kinase ABL1 (Homo sapiens) (UniProt P00519); assay: Inhibition of ABL1 (unknown origin) at 1 uM after 1 hr
Tankyrase 1/2 = target: T1, Tankyrase 1/2 (Homo sapiens, UniProt Q9H2K2+O95271); assay: Inhibition of tankyrase in human SW480 cells assessed as axin2 accumulation after 24 hrs by Hoechst dye-based assay; assay type: cell-based
T1 sequence (Q9H2K2 whole entry): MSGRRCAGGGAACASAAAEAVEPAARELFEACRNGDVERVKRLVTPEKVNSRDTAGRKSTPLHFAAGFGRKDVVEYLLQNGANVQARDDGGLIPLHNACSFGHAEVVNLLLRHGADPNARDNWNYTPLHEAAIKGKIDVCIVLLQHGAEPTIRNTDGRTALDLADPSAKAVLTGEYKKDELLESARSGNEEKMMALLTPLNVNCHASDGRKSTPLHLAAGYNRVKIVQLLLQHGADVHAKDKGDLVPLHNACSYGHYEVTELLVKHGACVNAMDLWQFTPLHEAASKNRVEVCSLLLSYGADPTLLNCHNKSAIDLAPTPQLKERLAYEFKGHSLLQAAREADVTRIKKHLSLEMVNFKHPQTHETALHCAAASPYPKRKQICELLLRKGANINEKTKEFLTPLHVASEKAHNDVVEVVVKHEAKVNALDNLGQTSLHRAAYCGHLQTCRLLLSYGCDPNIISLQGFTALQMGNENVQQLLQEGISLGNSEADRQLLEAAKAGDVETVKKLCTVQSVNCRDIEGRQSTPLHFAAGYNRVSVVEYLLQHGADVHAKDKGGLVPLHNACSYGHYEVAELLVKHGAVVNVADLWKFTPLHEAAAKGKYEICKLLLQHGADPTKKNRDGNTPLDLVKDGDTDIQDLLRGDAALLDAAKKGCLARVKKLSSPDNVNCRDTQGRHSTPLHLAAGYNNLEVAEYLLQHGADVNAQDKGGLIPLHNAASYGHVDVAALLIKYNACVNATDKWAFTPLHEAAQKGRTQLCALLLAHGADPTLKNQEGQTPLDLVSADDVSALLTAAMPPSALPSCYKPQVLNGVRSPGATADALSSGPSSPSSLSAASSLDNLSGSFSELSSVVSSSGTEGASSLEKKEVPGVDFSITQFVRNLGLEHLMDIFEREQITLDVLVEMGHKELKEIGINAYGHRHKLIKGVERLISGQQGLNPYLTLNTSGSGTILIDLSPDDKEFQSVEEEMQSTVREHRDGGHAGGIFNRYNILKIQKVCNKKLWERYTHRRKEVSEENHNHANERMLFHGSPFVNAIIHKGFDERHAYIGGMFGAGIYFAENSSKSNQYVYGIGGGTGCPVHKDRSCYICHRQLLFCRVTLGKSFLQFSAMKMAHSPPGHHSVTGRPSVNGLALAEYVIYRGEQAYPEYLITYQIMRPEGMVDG
T1 sequence (O95271 whole entry): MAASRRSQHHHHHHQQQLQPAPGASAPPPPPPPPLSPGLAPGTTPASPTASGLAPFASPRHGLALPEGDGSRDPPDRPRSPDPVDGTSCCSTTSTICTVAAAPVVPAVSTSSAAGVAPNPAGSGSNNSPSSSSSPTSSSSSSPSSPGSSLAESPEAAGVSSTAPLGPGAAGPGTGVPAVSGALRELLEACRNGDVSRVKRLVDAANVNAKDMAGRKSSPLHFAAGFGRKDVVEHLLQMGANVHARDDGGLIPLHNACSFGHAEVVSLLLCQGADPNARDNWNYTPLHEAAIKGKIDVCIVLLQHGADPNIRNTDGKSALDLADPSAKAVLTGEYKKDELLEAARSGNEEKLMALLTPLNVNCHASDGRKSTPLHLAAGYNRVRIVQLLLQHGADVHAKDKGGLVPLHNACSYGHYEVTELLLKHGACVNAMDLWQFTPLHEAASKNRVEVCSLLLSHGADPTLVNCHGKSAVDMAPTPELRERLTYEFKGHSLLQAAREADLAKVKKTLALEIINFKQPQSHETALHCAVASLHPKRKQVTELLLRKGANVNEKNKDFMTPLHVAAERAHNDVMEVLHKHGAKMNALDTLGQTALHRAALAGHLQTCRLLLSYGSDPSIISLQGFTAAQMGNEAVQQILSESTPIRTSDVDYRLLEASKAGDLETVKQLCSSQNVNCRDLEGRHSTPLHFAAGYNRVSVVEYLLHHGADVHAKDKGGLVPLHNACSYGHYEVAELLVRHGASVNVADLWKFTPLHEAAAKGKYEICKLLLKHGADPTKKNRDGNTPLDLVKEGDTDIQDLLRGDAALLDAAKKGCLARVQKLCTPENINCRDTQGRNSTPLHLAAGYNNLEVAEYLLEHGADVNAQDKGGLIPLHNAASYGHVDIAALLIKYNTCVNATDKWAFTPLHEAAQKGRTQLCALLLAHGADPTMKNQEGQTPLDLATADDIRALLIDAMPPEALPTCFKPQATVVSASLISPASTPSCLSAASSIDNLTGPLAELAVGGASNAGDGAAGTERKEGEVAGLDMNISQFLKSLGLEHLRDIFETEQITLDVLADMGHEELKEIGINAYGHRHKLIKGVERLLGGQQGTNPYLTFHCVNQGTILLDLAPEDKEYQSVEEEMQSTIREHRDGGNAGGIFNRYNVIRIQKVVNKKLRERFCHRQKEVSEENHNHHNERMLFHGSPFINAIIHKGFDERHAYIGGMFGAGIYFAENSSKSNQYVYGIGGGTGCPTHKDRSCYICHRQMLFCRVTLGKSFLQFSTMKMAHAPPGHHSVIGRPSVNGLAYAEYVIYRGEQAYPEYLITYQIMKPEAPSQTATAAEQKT

Mus musculus [2] = assay: In vivo inhibition of tankyrase-mediated TCF7 gene expression in tumor of athymic nude mouse xenografted with human DLD1 cells at 200 mg/kg, po bid for 3 days by STF assay; assay type: functional, organism-based; set-up: dose 200 mg/kg; settings: DLD-1
[3] = target: Somatostatin receptor type 4 (Homo sapiens, UniProt P31391); assay: Binding affinity to SST4 receptor (unknown origin)
Chain of Somatostatin receptor type 4 (P31391 whole entry): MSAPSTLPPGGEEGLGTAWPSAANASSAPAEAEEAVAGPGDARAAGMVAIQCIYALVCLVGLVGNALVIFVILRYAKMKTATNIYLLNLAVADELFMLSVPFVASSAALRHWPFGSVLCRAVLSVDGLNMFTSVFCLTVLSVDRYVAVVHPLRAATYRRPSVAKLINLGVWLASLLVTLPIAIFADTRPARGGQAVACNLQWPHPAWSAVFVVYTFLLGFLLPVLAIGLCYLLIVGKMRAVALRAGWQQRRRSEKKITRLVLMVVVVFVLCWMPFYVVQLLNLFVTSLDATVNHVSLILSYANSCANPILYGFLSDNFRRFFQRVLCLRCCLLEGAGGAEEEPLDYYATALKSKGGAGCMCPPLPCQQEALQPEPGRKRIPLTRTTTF

[4] = Cytotoxicity against human DLD1 cells; assay type: functional, cell-based; settings: DLD-1
Mus musculus [5] = assay: In vivo inhibition of tankyrase in tumor of athymic nude mouse xenografted with human DLD1 cells assessed as axin accumulation at 50 mg/kg, po bid for 3 days; assay type: functional, organism-based; set-up: dose 50 mg/kg; settings: DLD-1
[6] = target: Alpha-1A adrenergic receptor (Homo sapiens, UniProt P35348); assay: Binding affinity to adrenergic alpha1A receptor (unknown origin)
Chain of Alpha-1A adrenergic receptor (P35348 whole entry): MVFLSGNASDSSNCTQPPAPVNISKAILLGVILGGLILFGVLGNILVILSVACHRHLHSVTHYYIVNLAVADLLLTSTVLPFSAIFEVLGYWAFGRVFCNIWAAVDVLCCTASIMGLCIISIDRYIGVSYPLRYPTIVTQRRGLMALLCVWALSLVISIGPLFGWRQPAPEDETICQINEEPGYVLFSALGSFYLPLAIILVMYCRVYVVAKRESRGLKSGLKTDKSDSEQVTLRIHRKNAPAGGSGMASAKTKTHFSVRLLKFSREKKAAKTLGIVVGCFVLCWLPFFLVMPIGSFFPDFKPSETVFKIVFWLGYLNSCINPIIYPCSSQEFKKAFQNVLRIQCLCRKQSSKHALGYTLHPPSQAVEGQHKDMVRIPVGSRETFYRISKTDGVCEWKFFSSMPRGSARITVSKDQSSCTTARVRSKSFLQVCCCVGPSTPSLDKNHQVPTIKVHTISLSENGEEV

Mus musculus [7] = assay: In vivo inhibition of tankyrase-mediated Wnt gene transcription in tumor of athymic nude mouse xenografted with human DLD1 cells at 50 mg/kg, po bid for 3 days by STF assay; assay type: functional, organism-based; set-up: dose 50 mg/kg; settings: DLD-1
[8] = target: C-X-C chemokine receptor type 2 (Homo sapiens, UniProt P25025); assay: Binding affinity to CXCR2 (unknown origin)
Chain of C-X-C chemokine receptor type 2 (P25025 whole entry): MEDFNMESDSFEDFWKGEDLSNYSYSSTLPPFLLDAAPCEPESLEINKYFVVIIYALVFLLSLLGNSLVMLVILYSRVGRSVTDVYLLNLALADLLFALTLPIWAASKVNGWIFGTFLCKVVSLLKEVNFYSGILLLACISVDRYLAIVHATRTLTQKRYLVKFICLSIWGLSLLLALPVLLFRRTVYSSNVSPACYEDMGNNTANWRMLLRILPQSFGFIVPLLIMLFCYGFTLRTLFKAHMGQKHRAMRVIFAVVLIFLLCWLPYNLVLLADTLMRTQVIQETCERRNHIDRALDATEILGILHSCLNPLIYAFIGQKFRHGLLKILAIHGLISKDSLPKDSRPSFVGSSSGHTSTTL

Mus musculus [9] = assay: Toxicity in athymic nude mouse assessed as diarrhea at 100 mg/kg, po bid for 8 days; assay type: organism-based; set-up: dose 100 mg/kg, route oral; settings: in vivo, 192 h
Mu-type opioid receptor = Mu-type opioid receptor (Homo sapiens, UniProt P35372); assay: Binding affinity to mu opioid receptor (unknown origin)
Chain of Mu-type opioid receptor (P35372 whole entry): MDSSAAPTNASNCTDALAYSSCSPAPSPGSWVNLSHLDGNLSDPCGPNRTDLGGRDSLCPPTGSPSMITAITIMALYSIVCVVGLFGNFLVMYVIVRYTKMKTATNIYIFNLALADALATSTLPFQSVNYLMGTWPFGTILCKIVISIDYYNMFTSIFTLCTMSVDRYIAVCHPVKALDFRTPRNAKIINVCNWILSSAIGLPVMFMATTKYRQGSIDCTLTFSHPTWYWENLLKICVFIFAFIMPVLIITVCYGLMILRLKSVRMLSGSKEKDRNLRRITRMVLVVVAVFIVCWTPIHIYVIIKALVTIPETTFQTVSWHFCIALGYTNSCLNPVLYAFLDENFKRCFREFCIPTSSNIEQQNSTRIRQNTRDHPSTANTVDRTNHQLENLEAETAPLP

Mus musculus [10] = assay: Toxicity in athymic nude mouse assessed as cold at 100 mg/kg, po bid for 8 days; assay type: organism-based; set-up: dose 100 mg/kg, route oral; settings: in vivo, 192 h

Chain of Tyrosine-protein kinase ABL1 (Homo sapiens) (P00519 whole entry): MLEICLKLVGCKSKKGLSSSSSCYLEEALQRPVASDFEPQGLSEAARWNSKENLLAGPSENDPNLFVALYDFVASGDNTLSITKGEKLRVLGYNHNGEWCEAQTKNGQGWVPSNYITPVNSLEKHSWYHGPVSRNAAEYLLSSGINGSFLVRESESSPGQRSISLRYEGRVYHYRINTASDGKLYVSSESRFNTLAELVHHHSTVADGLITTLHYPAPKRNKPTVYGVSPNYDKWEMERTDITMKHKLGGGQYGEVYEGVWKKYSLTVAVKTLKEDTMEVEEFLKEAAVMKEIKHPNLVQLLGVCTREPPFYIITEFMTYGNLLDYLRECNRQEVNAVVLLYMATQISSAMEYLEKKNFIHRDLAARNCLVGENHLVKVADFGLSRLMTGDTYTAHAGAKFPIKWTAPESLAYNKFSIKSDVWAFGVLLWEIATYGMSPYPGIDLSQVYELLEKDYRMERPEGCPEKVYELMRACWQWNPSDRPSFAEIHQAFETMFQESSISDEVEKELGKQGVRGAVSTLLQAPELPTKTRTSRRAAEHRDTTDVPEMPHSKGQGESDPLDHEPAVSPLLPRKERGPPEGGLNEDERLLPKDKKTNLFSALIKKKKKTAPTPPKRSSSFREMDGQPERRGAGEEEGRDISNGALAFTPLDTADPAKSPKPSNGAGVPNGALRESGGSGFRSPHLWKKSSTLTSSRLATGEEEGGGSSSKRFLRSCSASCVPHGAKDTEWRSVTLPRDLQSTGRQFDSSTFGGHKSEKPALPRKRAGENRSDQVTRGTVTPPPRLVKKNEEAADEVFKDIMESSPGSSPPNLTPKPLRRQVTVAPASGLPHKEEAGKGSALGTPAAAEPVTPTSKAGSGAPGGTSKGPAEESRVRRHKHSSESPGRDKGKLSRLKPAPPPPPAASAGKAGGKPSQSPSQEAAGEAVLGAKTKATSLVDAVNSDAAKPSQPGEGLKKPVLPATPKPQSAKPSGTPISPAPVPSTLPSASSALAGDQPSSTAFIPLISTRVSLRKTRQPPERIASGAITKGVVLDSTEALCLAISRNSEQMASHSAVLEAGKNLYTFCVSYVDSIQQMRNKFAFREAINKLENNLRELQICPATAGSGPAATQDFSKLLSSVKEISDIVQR

Row | EC50 (Tankyrase 1/2) | Structure (SMILES) | inhibition [1] | inhibition (Mus musculus [2]) | IC50 [3] | IC50 [4] | inhibition (Mus musculus [5]) | IC50 [6] | inhibition (Mus musculus [7]) | IC50 [8] | Activity (Mus musculus [9]) | IC50 (Mu-type opioid receptor) | Activity (Mus musculus [10])
1 | 0.709 µM | CC1(C)OC(=O)N(c2ccc(-c3cnc(N)c(-c4ncccn4)c3)cc2)[C@H]1c1ccccc1 | inactive | Active | – | – | – | – | – | – | – | – | –
2 | – | CC1(C)OC(=O)N([C@H]2CC[C@H](c3cnc(N)c(-c4ncccn4)c3)CC2)[C@H]1c1ccccc1 | inactive | – | > 48.5 µM | 3 µM | Active | > 48.5 µM | Active | > 48.5 µM | Toxic | > 48.5 µM | Toxic
